No end group written: not given here.
Columns and labels:
[1] = Phase diagram in citrate / tris / ammonium bicarbonate buffers; assay type: physicochemical; settings: 20 mM citrate (pH 3-7)/tris (pH 7-9)/ammonium bicarbonate (pH 9-12), 0.2 M NaCl, room temperature
Protocol: Since this analysis is highly sensitive to pH fluctuation, we also created phase diagrams for all peptides using three different buffers that are optimized for specific pH range: citrate buffer for pH 3–7, tris buffer for pH 7–9 and ammonium bicarbonate for pH 9–12 (Supplementary Fig. 1). While the trend in these phase diagrams is similar to that obtained only in tris buffer, the critical pH for LLPS is lower in citrate buffer for all LLPS-promoting peptides (Supplementary Fig. 1).
150 μl of 5 mM, 8 mM, 10 mM, 15 mM, 20 mM, and 30 mM peptide solutions were prepared in either 20 mM tris buffer or 20 mM of the following three buffers: citrate buffer for pH 3–7 tris buffer for pH 7–9 and ammonium bicarbonate for pH 9–12, with 0.2 M NaCl. The pH was increased gradually until a turbidity appeared and measured as described below. All measurements were performed at room temperature. Data points represent averages of three independent measurements. Turbidity of 35 μl samples was estimated in triplicates from sample absorbance at λ = 500 nm as described below.
Supplementary Figure 1. Phase diagram of the peptides as a function of peptide concentration and pH, in different buffers: citrate buffer for pH 3-7, tris buffer for pH 7-9, and ammonium bicarbonate buffer for pH 9-12. 0.2 M NaCl was added to all samples, measurements were obtained at room […]
temperature. […] Values represent average pH of n=3 independent measurements, data are presented as mean values +/- SD. […]

[2] = Turbidity analysis of peptide LLPS at 20 mM at varying pH; assay type: physicochemical; settings: mean, Figure S8, for NMR experiment
Protocol: 150 μl of 20 mM peptide solutions were prepared in 20 mM Tris buffer. The pH was adjusted to the desired value of 6, 7, 8, 9, 10, and 11 then the turbidity of 35 μl was measured in triplicates at λ = 500 nm using a BioTek H1 synergy plate reader (purchased from Lumitron, Israel).
Supplementary Figure 7. CD analysis of peptides at 1 mM with and without NaCl.
Supplementary Figure 8. a. Turbidity analysis of peptide LLPS at a concentration of 20 mM at varying pH values. WGR-10 contains a Pro/Gln substitution. Each point represents an average of n=3, data are presented as mean values +/- SD b. Optical microscopy images of peptides at 20 mM at pH
10. Scale bar=50 μm. Source data are provided as a Source Data file. […]

[3] = solution NMR, S.D. in next row
Source text: Source data are provided as a Source Data file.
(1 picture or pasted object on this page, not shown here)

[4] = molecular target: T1, GFP (Aequorea victoria, UniProt P42212); experiment: Encapsulation efficiency of peptide droplets, GFP payload; assay type: physicochemical; settings: C initial 50 µg/ml, 20 mM peptide; for %EE: 20 mM Tris + 0.2 M NaCl pH 8, 15,000 g 10 min, supernatant fluorescence Ex 395/Em 509 nm
T1 construct: purchased Abcam (purchased from Zotal)
Source text: (§1) Next, we studied how peptide composition affects the encapsulation efficiency of the droplets by using GFP, rhodamine B, and fluorescein as fluorescent payload model systems (Fig. 4). We analyzed the encapsulation efficiency of the fluorescent payloads by using both confocal microscopy and absorbance measurements of the payloads in the dilute vs. the condensed phase (Fig. 4a–c). […] WGR-1 has the highest EE of fluorescein. In addition to π-π interactions, WGR-1 might form hydrogen bonding with the hydroxyl groups or electrostatic interactions with the deprotonated carboxylic acid of the dye.
(§2) Stock solutions (1 mM) of the fluorescein and rhodamine B dye molecules were prepared in 20 mM Tris buffer. Coacervate solutions of 20 mM peptide were prepared in 20 mM Tris + 0.2 M NaCl at pH 8. From these, a volume of 148.5 µl was mixed with 1.5 µl of dye solution in a 1.5 ml Eppendorf tube and pipetted. After 10 min the samples were centrifuged at 15,000 × g for 10 min. A volume of 120 μl from the supernatant was collected and vortexed and then the absorbance of 35 μl triplicates was measured (at λ = 490 nm for fluorescein and λ = 555 nm for RhB) in a 384 well black plate by Biotek H1 synergy plate reader (purchased from Lumitron, Israel). For GFP, a 7.5 µl of 20 mM Tris buffer to a 7.5 μl GFP aliquot from the purchased stock solution. The 15 µl of GFP solution was added to 135 µl of peptide solution and was mixed in a 1.5 ml Eppendorf tube and pipetted. The concentration of GFP at the supernatant was measured via fluorescence. All experiments were performed in triplicate. The concentration of the supernatant solutions determinate by calibration curves. Imaging was made to 30 μl of uncentrifuged samples. Efficiency of encapsulation (%EE) was calculated using Eq. 2. 2 %EE=CT−Csup/CT

[5] = Encapsulation efficiency of peptide droplets, fluorescein payload; assay type: physicochemical; settings: C initial 10 µM, 20 mM peptide; for %EE: 20 mM Tris + 0.2 M NaCl pH 8, 15,000 g 10 min, supernatant absorbance 490 nm
Source text: as §1, §2

[6] = Encapsulation efficiency of peptide droplets, rhodamine B payload; assay type: physicochemical; settings: C initial 10 µM, 20 mM peptide; for %EE: 20 mM Tris + 0.2 M NaCl pH 8, 15,000 g 10 min, supernatant absorbance 555 nm
Source text: as §1, §2

[7] = solution NMR

## WGRGRGRGWPGVGY [WGR-1]
[1]; 8 mM peptide, replicate 1
  pH at which turbidity (LLPS) appears: 8.43
[1]; 8 mM peptide, replicate 2
  pH at which turbidity (LLPS) appears: 8.47
[1]; 8 mM peptide, replicate 3
  pH at which turbidity (LLPS) appears: 8.55
[1]; 10 mM peptide, mean of n=3
  pH at which turbidity (LLPS) appears: 6.79
[1]; 10 mM peptide, replicate 1
  pH at which turbidity (LLPS) appears: 6.32
[1]; 10 mM peptide, replicate 2
  pH at which turbidity (LLPS) appears: 7.04
[1]; 10 mM peptide, replicate 3
  pH at which turbidity (LLPS) appears: 7.01
[1]; 15 mM peptide, mean of n=3
  pH at which turbidity (LLPS) appears: 6.34
[1]; 15 mM peptide, replicate 1
  pH at which turbidity (LLPS) appears: 6.41
[1]; 15 mM peptide, replicate 2
  pH at which turbidity (LLPS) appears: 6.41
[1]; 15 mM peptide, replicate 3
  pH at which turbidity (LLPS) appears: 6.2
[1]; 20 mM peptide, mean of n=3
  pH at which turbidity (LLPS) appears: 4.96
[1]; 20 mM peptide, replicate 1
  pH at which turbidity (LLPS) appears: 5.1
[1]; 20 mM peptide, replicate 2
  pH at which turbidity (LLPS) appears: 4.89
[1]; 20 mM peptide, replicate 3
  pH at which turbidity (LLPS) appears: 4.89
[1]; 30 mM peptide, replicate 1
  pH at which turbidity (LLPS) appears: 4.78
[1]; 30 mM peptide, replicate 2
  pH at which turbidity (LLPS) appears: 4.27
[1]; 30 mM peptide, replicate 3
  pH at which turbidity (LLPS) appears: 4.52
[2]; pH 6
  Turbidity as asorbance at 500 nm: 0.0085
[2]; pH 7
  Turbidity as asorbance at 500 nm: 0.019
[2]; pH 8
  Turbidity as asorbance at 500 nm: 0.01867
[2]; pH 9
  Turbidity as asorbance at 500 nm: 0.03567
[2]; pH 10
  Turbidity as asorbance at 500 nm: 1.253
[2]; pH 11
  Turbidity as asorbance at 500 nm: 1.988
[3]
  D dilute phase (NMR), apparent diffusion coefficient: 1.91E-10 m^2/sec
[4]; replicate 1, given as fraction
  %EE: 0.8616
[4]; replicate 2, given as fraction
  %EE: 0.9526
[4]; replicate 3, given as fraction
  %EE: 0.9328
[4]; 20 mM Tris + 0.2 M NaCl pH 8, supernatant fluorescence, average of replicates, in percent
  Encapsulation efficiency (EE): 91.5647%
[5]; replicate 1, given as fraction
  %EE: 0.888
[5]; replicate 2, given as fraction
  %EE: 0.8098
[5]; replicate 3, given as fraction
  %EE: 0.7632
[5]; 20 mM Tris + 0.2 M NaCl pH 8, supernatant absorbance 490 nm, mean of n=3, in percent
  Encapsulation efficiency (EE): 82.0333%
[6]; replicate 1, given as fraction
  %EE: 0.9106
[6]; replicate 2, given as fraction
  %EE: 0.9029
[6]; replicate 3, given as fraction
  %EE: 0.8168
[6]; 20 mM Tris + 0.2 M NaCl pH 8, supernatant absorbance 555 nm, mean of n=3, in percent
  Encapsulation efficiency (EE): 87.6774%
[7]; Trp1-Hα and Trp1-Hβ shifts at pH 6.0, 7.0, 7.5, 8.0, 9.0, Henderson-Hasselbach fit, error by Monte Carlo
  pKa of the N-terminal amine group: 7.50 ± 0.01
[7]; pH-induced chemical shift changes
  pKa of the Tyr14 phenolic ring: ~ 10
